Laboratory results reported in ChEMBL document CHEMBL3259669, “The discovery and SAR of cyclopenta[b]furans as inhibitors of CCR2” (Bioorg Med Chem Lett, 2014).

Columns and labels:
Rattus norvegicus = organism: Rattus norvegicus; settings: in vivo, iv, 2 mg/kg
in vivo [1] = settings: rat, iv, 2 mg/kg
[2] = rat, microsomes
in vivo [3] = settings: rat, plasma
[4] = Plasma concentration in guinea pig at 10 mg/kg; type: ADME, organism-based, Cavia porcellus; parameters: dose 10 mg/kg; settings: in vivo
in vivo [5] = settings: rat, po, 10 mg/kg
in vivo [6] = settings: rat, po, 10 mg/kg; remark: listed apart in the source
[7] = buffer
Plasma = assay: Plasma concentration in thioglycolate-induced peritoneal leukocyte infiltration in human CCR2 knock-in mouse model at 1 mg/kg, po; type: ADME, organism-based; parameters: dose 1 mg/kg, route oral; settings: in vivo
in vivo [8] = settings: rat
[9] = human, microsomes

| CL (Rattus norvegicus) | Vd (in vivo [1]) | Stability [2] | AUC(0-t) (in vivo [3]) | concentration [4] | Cmax (in vivo [5]) | bioavailability (in vivo [6]) | solubility [7] | concentration (Plasma) | half-life (in vivo [8]) | Stability [9] | Structure (SMILES) |
| --- | --- | --- | --- | --- | --- | --- | --- | --- | --- | --- | --- |
| 43.2 mL/mg/kg | 5 L/kg | Stable | 3540 ng·h/mL | 18 µM | 632 ng/mL | 91% | soluble | 0.098 µM | 3.5 h | Stable | CO[C@H]1COCC[C@H]1N[C@@H]1C[C@H]2OCC[C@@]2(C(=O)N2CCc3ncc(C(F)(F)F)cc3C2)C1 |
| 15.6 mL/mg/kg | 3.2 L/kg | Stable | 9760 ng·h/mL | 23 µM | 2200 ng/mL | 94% | soluble | 0.097 µM | 3.8 h | Stable | CO[C@@H]1COCC[C@@H]1N[C@@H]1C[C@H]2OCC[C@@]2(C(=O)N2CCc3ncc(C(F)(F)F)cc3C2)C1 |
